Experimental data reported in patent US11224222B2, “Synergistic compositions of dehydroacetic acid and methods for reducing yellowing in various end-user compositions” (ISP Investments LLC, priority 2015, dated 2022).
Like-named read-outs stand apart in the source and are kept apart here.

How the values were obtained:
[1] = tested on: S. aureus; assay: Preservative Efficacy Test in Lamellar Prolipid formulation: S. aureus; type: cell-based
From the text: (§1) The detailed composition of these end-user products comprising DHA solubilized Propyelene Carbonate is described below in detail.

[2] = tested on: Bacterial Mixture; assay: Preservative Efficacy Test in Lamellar Prolipid formulation: Bacterial Mixture; type: cell-based
From the text: as §1

[3] = tested on: Mold Mixture; assay: Preservative Efficacy Test in Lamellar Prolipid formulation: Mold Mixture; type: cell-based
From the text: as §1

[4] = Yellowing of DHA in aprotic and protic solvents; type: physicochemical
From the text: The various solvents selected are disclosed in Table 8.
The yellowing of DHA increased drastically when aprotic aromatic compounds were present along with DHA due to radical coupling between DHA and such solvents comprising aromatic compounds.
The decomposition of DHA was low at room temperature (RT) and at high temperature, wherein, the small amount of DHA decompose to form a radical and couple by themselves to form traces high of epsilon chromophoric products and if aromatic aprotic solvents are present along with DHA in solution they couple to form a longer chromophore with high intensity yellow color in water.

[5] = Solubility of DHA in aprotic and protic solvents
From the text: In order to choose the suitable solvent for preparing non-yellowing DHA composition, the different possible protic, aprotic solvents were selected and evaluated individually and also as their suitable mixture.
In case of aprotic solvents, it was selected based on its compatibility with other ingredients present in the end-user products. Further, the regulatory requirement was also considered as an important element in choosing preferred aprotic solvent for preparing non-yellowing/reduced-yellowing DHA composition of the present application. The high content of DHA can be introduced in the solvent by dispersing or dissolving the DHA in their corresponding aprotic solvents. […] The various solvents selected are disclosed in Table 8.
Further, the applicants have evaluated various protic solvents to understand their ability to render non-yellowing/reduced-yellowing DHA composition for employing in various end-user products that are aqueous in nature.

[6] = tested on: E. coli (ATCC 8739); assay: Synergism study (MIC, synergy index) of DHA with aprotic solvents: E. coli; type: cell-based
Procedure: (§2) Tryptic Soy Broth (TSB) media was used for bacterial evaluations and Yeast Malt Broth (YMB) for fungal evaluations. The compounds DHA or the aprotic solvents were added to the media and serially diluted. After serially diluting the media, 100 μl of a suspension of the testing bacteria or fungi were added to a final concentration of approximately 106 −5 CFU/ml. The inoculated media was then incubated at 32° C. for 2-5 days for bacteria or at 28° C. for 3-7 days for fungi.
(§3) The lowest concentration of each compound or mixtures to inhibit visible growth was taken as the minimum inhibitory concentration (MIC). The MIC's were taken as end points of activity. End points for the mixtures of compound A (DHA) and compound B (aprotic solvent) were then compare with the end points for the pure active ingredient alone.
(§4) Synergism was determined by a commonly used and accepted method described by Kull A. C.; Eisman, P. C.; Sylwestrowicz, H. D. and Mayer, R. L. 1961. […]

[7] = tested on: A. brasilensts (ATCC 16404); assay: Synergism study (MIC, synergy index) of DHA with aprotic solvents: A. brasilensts; type: cell-based
Procedure: as §2, §3, §4

[8] = tested on: S. aureus (ATCC 6538); assay: Synergism study (MIC, synergy index) of DHA with aprotic solvents: S. aureus; type: cell-based
Procedure: as §2, §3, §4

[9] = DHA in the named protic polar solvent, RT
[10] = DHA in the named protic polar solvent (Table 9)
[11] = DHA in the named aprotic solvent, RT, 1 month

CCCCCCC(O)CO (stereo not shown) [0.5% octanediol]
Preservative Efficacy Test count, S. aureus, Days 2 ([1]; day 2): 4.00E+01
Preservative Efficacy Test count, S. aureus, Days 7 ([1]; day 7): <10
Preservative Efficacy Test count, S. aureus, Days 14 ([1]; day 14): <10
Preservative Efficacy Test count, S. aureus, Days 21 ([1]; day 21): <10
Preservative Efficacy Test count, S. aureus, Days 28 ([1]; day 28): <10
Preservative Efficacy Test count, Bacterial Mixture, Days 2 ([2]; day 2): <10
Preservative Efficacy Test count, Bacterial Mixture, Days 7 ([2]; day 7): <10
Preservative Efficacy Test count, Bacterial Mixture, Days 14 ([2]; day 14): <10
Preservative Efficacy Test count, Bacterial Mixture, Days 21 ([2]; day 21): <10
Preservative Efficacy Test count, Bacterial Mixture, Days 28 ([2]; day 28): <10
Preservative Efficacy Test count, Mold Mixture, Days 2 ([3]; day 2): 2.10E+04
Preservative Efficacy Test count, Mold Mixture, Days 7 ([3]; day 7): 1.80E+04
Preservative Efficacy Test count, Mold Mixture, Days 14 ([3]; day 14): 4.40E+03
Preservative Efficacy Test count, Mold Mixture, Days 21 ([3]; day 21): 4.30E+03
Preservative Efficacy Test count, Mold Mixture, Days 28 ([3]; day 28): 5.00E+04

CCCCCCC(O)CO (stereo not shown) [Capryl glycol]
Yellowing at RT For 1 month [4, 9]: Yellow in 30 days
% of DHA soluble [5, 10]: 2.5%

C1CCCCC1 [Cyclohexane]
Yellowing At 50° C. ([4]; DHA in the named aprotic solvent, 50° C., figures in brackets = Gardner color): Slight yellowing (2-3)
Yellowing at RT For 1 month [4, 11]: No yellowing
% of DHA soluble [5]: 3-5%

Water
Yellowing at RT For 1 month ([4]; DHA in Water, pH 4): No yellowing
Yellowing at RT For 1 month ([4]; DHA in Water, pH 8): Slight yellowing

CC1COC(=O)O1 (stereo not shown) [Propylene carbonate, propylene carbonate]
Yellowing at RT For 1 month [4, 11]: No yellowing
MIC ([6]; Escherichia coli, ATCC8739, read-out: Solvent (B): MIC of solvent acting alone (QB)): 6250 µg/mL
MIC ([7]; read-out: Solvent (B): MIC of solvent acting alone (QB)): 6250 µg/mL
MIC ([8]; Staphylococcus aureus, ATCC6538, read-out: Solvent (B): MIC of solvent acting alone (QB)): 12500 µg/mL

CO[C@H]1CO[C@H]2[C@@H]1OC[C@H]2OC [Dimethyl isosorbide]
Solvent (B): MIC of solvent acting alone (QB) [6]: 12500 ppm
Solvent (B): MIC of solvent acting alone (QB) [7]: 3125 ppm
Solvent (B): MIC of solvent acting alone (QB) [8]: 12500 ppm
% of DHA soluble ([5]; DHA in the named aprotic solvent (Table 8)): 8-10%

Phenethylpropanol
Yellowing at RT For 1 month [4, 9]: yellow on day one
% of DHA soluble [5]: 8%
Comments ([5]; pH 8): Crystallize

COC(=O)C(C)O (stereo not shown) [Methyl lactate]
Yellowing at RT For 1 month [4, 11]: No yellow

Phenethyl ethanol
Yellowing at RT For 1 month [4]: Yellow on day one
% of DHA soluble [5, 10]: 8%

CCCCC(O)CO (stereo not shown) [1,2hexanediol]
Yellowing at RT For 1 month [4, 9]: Yellow in 9 days
